The values below come from the supplement of paper PMC11208160.
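Also: IS621 recombinase and bridge RNA in Escherichia coli cells.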

The data set is described as follows: recombinant barcode read abundance after kanamycin selection (control-corrected) (log10(CPM+1)); higher = more efficient recombination; sequences stand for … in AGTGCAGAGAAAATCGGCCAGTTTTCTCTGCCTGCAGTCCGCATGCCGT…AGATTTATGCAGCGGACTGCCTTTCTCCCAAAGTGATAAACCGGACAGTATCATGGACCGGTTTTCCCGGTAATCCGTATTTGCAAGGTTGGTTTCACT; site = the 11-nt target. The method in brief:
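Oligos holding a promoter, target, barcode and the J23119-driven first 104 bases of the bridge RNA were Gibson-cloned into a vector that supplied the other 73 bp plus a T7-inducible recombinase. This library was co-electroporated with a donor plasmid into E. coli. Two replicates went on chloramphenicol/ampicillin LB agar (control) and two on chloramphenicol/ampicillin/kanamycin with 0.1 mM IPTG. Recombination efficiency is read from averaged, control-corrected barcode counts per million at recombinant junctions, reported as log10(CPM+1).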
Take “AGGATTCCTTGGGTTCTAACCTGTTGCCT (site ACGATTCCTAG)”: the “recombinant barcode read abundance (log10)” value came out at 0.634. In the case of “AGGATTCCTTGGGTTCTAACCTGTTGCCT (site AGGATTCCTAG)” it was 1.16; in that of “AGGATTCCTTGGGTTCTAACCTGTTGCCT (site ATGATTCCTAG)”, 0.158; in that of “AGGCCCACTTGGGTTCTAACCTGTTGCTC (site AGGCCCACTGA)”, 1.81.

In the case of “AGGCCCACTTGGGTTCTAACCTGTTGCTC (site AGGTCCACTCA)”, the “recombinant barcode read abundance (log10)” value was 0.166.

With “AGGCCGTCTTGGGTTCTAACCTGTTGCGT (site AGGCAGTCTAG)”, the “recombinant barcode read abundance (log10)” value worked out at 0.195. “AGGCCGTCTTGGGTTCTAACCTGTTGCGT (site AGGCCGTCTAC)”: the “recombinant barcode read abundance (log10)” value was found to be 2.43. Take “AGGCGCCCTTGGGTTCTAACCTGTTGCAT (site AGGCGCCCTAT)”: the “recombinant barcode read abundance (log10)” value stood at 1.29. The value for “AGGCGCCCTTGGGTTCTAACCTGTTGCAT (site AGGCGCCCTCT)” was 0.041; that for “AGGCGCCCTTGGGTTCTAACCTGTTGCAT (site AGGCGCCCTGT)” was 0.219; that for “AGGCGCCCTTGGGTTCTAACCTGTTGCAT (site AGGCGCCCTTT)” was 0.244. The value for “AGGCGTCCTTGGGTTCTAACCTGTTGCCG (site AGGCGTCCTAG)” was 0.964; that for “AGGCGTCCTTGGGTTCTAACCTGTTGCCG (site AGGCGTCCTCG)” was 1.24; that for “AGGCGTCCTTGGGTTCTAACCTGTTGCCG (site AGGCGTCCTGG)” was 0.227.

In the case of “AGGCGTCCTTGGGTTCTAACCTGTTGCCG (site AGGCGTCCTTG)”, the “recombinant barcode read abundance (log10)” value was found to be 0.122. Regarding “AGGCGTCCTTGGGTTCTAACCTGTTGCCT (site AGGCGTCCTAG)”, the “recombinant barcode read abundance (log10)” value is 1.44. In the case of “AGGCGTCCTTGGGTTCTAACCTGTTGCCT (site AGGCGTCCTCG)” it was 0.249; in that of “AGGCGTCCTTGGGTTCTAACCTGTTGCCT (site AGGCGTCCTGG)”, 1.03. In the case of “AGGCGTCCTTGGGTTCTAACCTGTTGCCT (site AGGCGTCCTTG)” it was 0.374; in that of “AGGGATCCTTGGGTTCTAACCTGTTGCGT (site AGGGATCCTAC)”, 3.09. The value for “AGGGATCCTTGGGTTCTAACCTGTTGCGT (site ATGGATCCTAC)” was 1.29. For “AGGGCACCTTGGGTTCTAACCTGTTGCAG (site AGGGCACCTCT)”, the “recombinant barcode read abundance (log10)” value was determined as 1.56. The value for “AGGGCACCTTGGGTTCTAACCTGTTGCAG (site CATCGGACTTC)” was 0.142; that for “AGGGCGTCTTGGGTTCTAACCTGTTGCCG (site AGGGCATCTAG)” was 0.0811. In the case of “AGGGCGTCTTGGGTTCTAACCTGTTGCCG (site AGGGCGTCTCG)” it was 1.69; in that of “AGGGTCACTTGGGTTCTAACCTGTTGCCT (site AAGGTCACTAG)”, 0.274; in that of “AGGGTCACTTGGGTTCTAACCTGTTGCCT (site ACGGTCACTAG)”, 0.653. The value for “AGGGTCACTTGGGTTCTAACCTGTTGCCT (site AGGGTCACTAG)” was 2.23. Turning to “AGGGTCACTTGGGTTCTAACCTGTTGCCT (site ATGGTCACTAG)”, the “recombinant barcode read abundance (log10)” value came to 1.06.

Regarding “AGGGTGTCTTGGGTTCTAACCTGTTGCTG (site AGGGTGCCTTA)”, the “recombinant barcode read abundance (log10)” value is 0.105. The value for “AGGGTGTCTTGGGTTCTAACCTGTTGCTG (site AGGGTGTCTCA)” was 2.55; that for “AGGTACACTTGGGTTCTAACCTGTTGCAC (site AGGTACACTGT)” was 2.22; that for “AGGTACACTTGGGTTCTAACCTGTTGCAC (site TTCAGACCTAG)” was 0.0924. As for “AGGTCCACTTGGGTTCTAACCTGTTGCTG (site AGGCCCACTGA)”, the “recombinant barcode read abundance (log10)” value amounted to 0.109. In the case of “AGGTCCACTTGGGTTCTAACCTGTTGCTG (site AGGTCCACTCA)” it was 1.31; in that of “AGGTCCTCTTGGGTTCTAACCTGTTGCCT (site AGGTCCTCTAA)”, 1.05. For the sequence “AGGTCCTCTTGGGTTCTAACCTGTTGCCT (site AGGTCCTCTAC)”, the “recombinant barcode read abundance (log10)” value was found to be 0.233.

On to “AGGTCCTCTTGGGTTCTAACCTGTTGCCT (site AGGTCCTCTAG)”, for which the “recombinant barcode read abundance (log10)” value is 2.06. In the case of “AGGTCCTCTTGGGTTCTAACCTGTTGCCT (site AGGTCCTCTAT)” it was 0.703; in that of “AGGTCTACTTGGGTTCTAACCTGTTGCCA (site AGGTCTACTTG)”, 0.6; in that of “AGGTCTACTTGGGTTCTAACCTGTTGCCA (site TTAGACCCTCT)”, 0.1. The value for “AGGTCTACTTGGGTTCTAACCTGTTGCGG (site AGGTCTACTCC)” was 1.63; that for “AGGTCTACTTGGGTTCTAACCTGTTGCGG (site GAAAACTCTAG)” was 0.0493; that for “AGGTGTCCTTGGGTTCTAACCTGTTGCGA (site AGGTGTCCTTC)” was 2.36. Turning to “AGGTGTCCTTGGGTTCTAACCTGTTGCGA (site TATATATCTAT)”, the “recombinant barcode read abundance (log10)” value worked out at 0.247.

In the case of “AGGTTCCCTTGGGTTCTAACCTGTTGCGG (site AGGTTCCCTCC)”, the “recombinant barcode read abundance (log10)” value came out at 1.96. For the sequence “AGGTTCCCTTGGGTTCTAACCTGTTGCGG (site CTAGGAACTTA)”, the “recombinant barcode read abundance (log10)” value was found to be 0.11. The value for “AGGTTCCCTTGGGTTCTAACCTGTTGCTG (site AGGTTCCCTAA)” was 0.154; that for “AGGTTCCCTTGGGTTCTAACCTGTTGCTG (site AGGTTCCCTCA)” was 2.46. In the case of “AGGTTCCCTTGGGTTCTAACCTGTTGCTG (site AGGTTCCCTGA)” it was 0.142; in that of “AGGTTCCCTTGGGTTCTAACCTGTTGCTG (site AGGTTCCCTTA)”, 0.358.

For “AGTAAGACTTGGGTTCTAACCTGTTGCGT (site AGTAAGACTAA)”, the “recombinant barcode read abundance (log10)” value is 0.062.

Take “AGTAAGACTTGGGTTCTAACCTGTTGCGT (site AGTAAGACTAC)”: the “recombinant barcode read abundance (log10)” value stood at 2.25.

Consider “AGTAAGACTTGGGTTCTAACCTGTTGCGT (site AGTAAGACTAG)”, for which the “recombinant barcode read abundance (log10)” value was 0.482. “AGTAAGACTTGGGTTCTAACCTGTTGCGT (site AGTAAGACTAT)”: the “recombinant barcode read abundance (log10)” value was 1.22.

For the sequence “AGTAAGACTTGGGTTCTAACCTGTTGCTT (site AGTAAGACTAA)”, the “recombinant barcode read abundance (log10)” value is 0.281. Turning to “AGTAAGACTTGGGTTCTAACCTGTTGCTT (site AGTAAGACTAC)”, the “recombinant barcode read abundance (log10)” value is 0.354. In the case of “AGTAAGACTTGGGTTCTAACCTGTTGCTT (site AGTAAGACTAG)” it was 0.202; in that of “AGTAAGACTTGGGTTCTAACCTGTTGCTT (site AGTAAGACTAT)”, 0.15.

In the case of “AGTACTACTTGGGTTCTAACCTGTTGCCT (site AATACTACTAG)”, the “recombinant barcode read abundance (log10)” value was 0.0591.

Consider “AGTACTACTTGGGTTCTAACCTGTTGCCT (site ACTACTACTAG)”, for which the “recombinant barcode read abundance (log10)” value is 0.0106. In the case of “AGTACTACTTGGGTTCTAACCTGTTGCCT (site AGTACTACTAG)” it was 0.25; in that of “AGTACTACTTGGGTTCTAACCTGTTGCCT (site ATTACTACTAG)”, 0.162; in that of “AGTAGGCCTTGGGTTCTAACCTGTTGCGG (site AGTAGGCCTCC)”, 1.4. The value for “AGTAGGCCTTGGGTTCTAACCTGTTGCGG (site GGTAGGACTCC)” was 0.303; that for “AGTAGGGCTTGGGTTCTAACCTGTTGCAG (site AGTAGGGCTCT)” was 2.65.

As to “AGTAGGGCTTGGGTTCTAACCTGTTGCAG (site CGTAGGGCTCG)”, the “recombinant barcode read abundance (log10)” value amounted to 0.0704. In the case of “AGTATCGCTTGGGTTCTAACCTGTTGCGG (site AGTATCGCTCC)” it was 1.11; in that of “AGTATCGCTTGGGTTCTAACCTGTTGCGG (site AGTCTCGCTCC)”, 0.11. In the case of “AGTATCGCTTGGGTTCTAACCTGTTGCGG (site AGTGTCGCTCC)” it was 0.0704; in that of “AGTATCGCTTGGGTTCTAACCTGTTGCGG (site AGTTTCGCTCC)”, 0.246.

Turning to “AGTATGTCTTGGGTTCTAACCTGTTGCCT (site AGTATGTCTAG)”, the “recombinant barcode read abundance (log10)” value stood at 1.13.

On to “AGTATGTCTTGGGTTCTAACCTGTTGCCT (site CGTATGTCTAG)”, for which the “recombinant barcode read abundance (log10)” value was 0.184. The value for “AGTATGTCTTGGGTTCTAACCTGTTGCCT (site GGTATGTCTAG)” was 0.0305; that for “AGTATGTCTTGGGTTCTAACCTGTTGCCT (site TGTATGTCTAG)” was 0.116. In the case of “AGTCACACTTGGGTTCTAACCTGTTGCAG (site AGTCACACTCT)” it was 1.44. In the case of “AGTCACACTTGGGTTCTAACCTGTTGCAG (site TTGTGAGCTGC)” it was 0.153.
